{"source": "patent US20040133938A1", "about": "“Use of lipoic acid in plant culture media” (priority 2002, published 2004)", "key": {"[1]": {"tested_on": "MicroTom cotyledon explants", "test": "Transient GUS expression in MicroTom cotyledon explants", "format": "cell-based, Lycopersicon esculentum", "details": "for % High transient expression / % Low transient expression / % No transient expression: GUS, after 5 days on selection media", "description": "Cotyledon explants were isolated from seedlings 7 days after sowing seeds on Davis Germination medium. Cotyledon explants were prepared by bathing them in 6 mL of TXD liquid medium (4.3 g/L MS salts, 2 mL/L Gamborg's B-5 500× salts, 4 mg/L pCPA (p-chlorophenoxyactic acid), 0.005 mg/L kinetin, and 30 g/L sucrose) to prevent desiccation and trimming them at both ends using a #15 feather blade. Immediately after the trimming, the cotyledon explants were gently placed on “feeder plates” containing UC2PC medium (2.2 g/L MS salts, 2.2 mL/L, Gamborg's B-5 500× salts, 0.2 mg/L 2,4-D, 4 mg/L pCPA, 0.1 mg/L kinetin, 30 g/L sucrose, 0.2 g/L potassium phosphate, 10 g/L agar, 8 mL/L acetosyringone (4.91 mg/mL), and 4 mL galacturonic acid (53.05 mg/mL)). The “feeder plates” are made by overlaying 2 mL of tobacco suspension cells and a sterile Whatman filter on the plates containing UC2PC medium. The cotyledon explants were gently poked with a sharp forceps (ASIM5311, Stainless French, made in Switzerland). Usually six to ten pokes were made per explant depending the size of cotyledons. Right after poking, the cotyledons were inoculated with Agrobacterium containing pMON15715 (FIG. 1) by adding 3 mL of the adjusted Agrobacterium solution on top of the cotyledons. The plates were incubated for 10 min at room temperature, and the Agrobacterium solution was aspirated with a sterile pipette. The cotyledons were then co-cultured for 2 days at 23-24° C. under a 16-h photoperiod. The co-culture plates were placed in plastic bags to keep the humidity, which is preferable for MicroTom growth.\nTwo days after co-cultivation, cotyledons were transferred to shoot induction medium SI-2 (4.3 g/L MS salts, 2 mL/L, Gamborg's B-5 500× salts, 30 g/L sucrose, 10 g/L agar, 500 mg/L carbenicillin, 100 mg/L cefotaxime, 0.1 mg/L IAA, and 2 mg/L zeatin riboside) supplemented with 10 μM of lipoic acid and 100 mg/L kanamycin. Three to four weeks after the induction stage, the cotyledons formed buds or shoots. Cotyledons with buds or shoots were separated by individual event and transferred to, shoot elongation medium E2 (SI-2 medium without IAA), supplemented with 100 mg/L kanamycin for two to four weeks. All culture plates were placed in a culture box, placed inside a plastic bag, and cultured at 23-24° C. under a 16 h photoperiod.\nAt the same time the tissue browning severity was measured, transient expression of the gus gene was scored. High transient expression was defined as an explant having more than 30% of the pokes that produced GUS blue spots. Low transient expression was defined as an explant having less than 30% of the pokes that produced GUS blue spots about 5 days after culturing on selection medium. Nontransient expression was determined as an explant having no GUS blue spot. With the lipoic acid treatments at the concentrations of 10 and 50 μM, the percentage of explants having high transient expression doubled from 30% (non-lipoic acid treatment) up to 60.9% (Table 2). […] When lipoic acid was used in the selection process at the concentrations of 10, 50 and 100 μM, 100% of explants transiently expressed the GUS gene, but without lipoic acid or lipoic acid at the concentration of 5 μM, 20% and 9.5% of explants had no GUS transient expression."}, "[2]": {"tested_on": "immature embryos of wheat cv Bobwhite", "test": "Wheat Agrobacterium transformation", "format": "cell-based, Triticum aestivum L", "details": "for Efficiency (%) / Responding calli (%): selection and first regeneration media", "description": "This example describes the use of lipoic acid in an Agrobacterium-based wheat transformation process. Immature embryos of wheat (Triticum aestivum L) cv Bobwhite were isolated from the immature caryopsis (wheat spikelets) 13-15 days after pollination, and cultured on M7 media (M7 medium is based on CM4C medium [Table 8], but the amount of MS salts was doubled and the picloram concentration was increased from 2.4 mg/L to 4 mg/L) containing 0.02 mM glyphosate for 3-4 days in the dark at 25° C. The embryos without embryogenic callus were selected for Agrobacterium inoculation. After preculture, 100 embryos were inoculated in 5 mL 1/10 CM4C medium with 5 mL Agrobacterium (OD660=1), 10 μL Pluronic F68 was added, and the mixture was incubated for 15 minutes in the dark at room temperature. Embryos were placed on sterilized filter paper with 200 μL deionized water and cocultured in the dark for 3 days at 23° C. Embryos were then transferred to delay media for 7 days in the dark at 25° C. Delay medium consists of CM4C, 500 mg/L carbenicillin, and 0.02 mM glyphosate. Selection was then performed on CM4C with 2 mM glyphosate, 500 mg/L carbenicillin and aromatic amino acids (10^−7/amino acid) for 7 days. Regeneration was started on MMSO.2C with 0.1 mM glyphosate, 250 mg/L carbenicillin, and aromatic amino acids ([…]) for 2 weeks in the light at 25° C. Regeneration was continued in MMSO.2C with 0.02 mM glyphosate, 500 mg/L carbenicillin, aromatic amino acids (10^−7/amino acid), and 2 μM copper sulfate for 2-8 weeks (with a transfer every 2 weeks) in the light at 25° C. Finally, plantlets were transferred to sundae cups with MMSO media with 0.02 mM glyphosate, and 500 mg/L carbenicillin."}, "[3]": {"details": "Delay-selection-first regeneration 25-25-50 (μM), 599 explants"}, "[4]": {"details": "Delay-selection-first regeneration 25-50-50 (μM), 560 explants"}, "[5]": {"details": "Delay-selection-first regeneration 50-50-50 (μM), 570 explants"}}}
{"smiles": "O=C(O)CCCCC1CCSS1", "note": "(stereo not drawn) [lipoic acid, 1,2-dithiolane-3-pentanoic acid]", "values": [{"measurement": "% High transient expression", "setting": "[1]; 5 μM lipoic acid", "value": 42.9, "unit": "%"}, {"measurement": "% Low transient expression", "setting": "[1]; 5 μM lipoic acid", "value": 47.6, "unit": "%"}, {"measurement": "% No transient expression", "setting": "[1]; 5 μM lipoic acid", "value": 9.5, "unit": "%"}, {"measurement": "% High transient expression", "setting": "[1]; 10 μM lipoic acid", "value": 60.9, "unit": "%"}, {"measurement": "% Low transient expression", "setting": "[1]; 10 μM lipoic acid", "value": 39.1, "unit": "%"}, {"measurement": "% No transient expression", "setting": "[1]; 10 μM lipoic acid", "value": 0, "unit": "%"}, {"measurement": "% High transient expression", "setting": "[1]; 50 μM lipoic acid", "value": 56.5, "unit": "%"}, {"measurement": "% Low transient expression", "setting": "[1]; 50 μM lipoic acid", "value": 43.5, "unit": "%"}, {"measurement": "% No transient expression", "setting": "[1]; 50 μM lipoic acid", "value": 0, "unit": "%"}, {"measurement": "% High transient expression", "setting": "[1]; 100 μM lipoic acid", "value": 34.8, "unit": "%"}, {"measurement": "% Low transient expression", "setting": "[1]; 100 μM lipoic acid", "value": 65.2, "unit": "%"}, {"measurement": "% No transient expression", "setting": "[1]; 100 μM lipoic acid", "value": 0, "unit": "%"}, {"measurement": "% of explants that transiently expressed the GUS gene", "setting": "[1]; lipoic acid at 10, 50 and 100 μM in the selection process", "value": 100, "unit": "%"}, {"measurement": "increase of the percentage of explants having high level of transient expression", "setting": "[1]; summary, MicroTom transformation", "value": 2, "unit": "fold"}, {"measurement": "Efficiency (%)", "setting": "[2]; 5 μM in delay, 472 explants", "value": 3.8, "unit": "%"}, {"measurement": "Responding calli (%)", "setting": "[2]; 5 μM in delay, 472 explants", "value": 33.1, "unit": "%"}, {"measurement": "Efficiency (%)", "setting": "[2]; 10 μM in delay, 486 explants", "value": 3.2, "unit": "%"}, {"measurement": "Responding calli (%)", "setting": "[2]; 10 μM in delay, 486 explants", "value": 38.8, "unit": "%"}, {"measurement": "Efficiency (%)", "setting": "[2]; 30 μM in delay, 486 explants", "value": 3.0, "unit": "%"}, {"measurement": "Responding calli (%)", "setting": "[2]; 30 μM in delay, 486 explants", "value": 38.6, "unit": "%"}, {"measurement": "Efficiency (%)", "setting": "[2]; 50 μM in delay, 482 explants", "value": 5.1, "unit": "%"}, {"measurement": "Responding calli (%)", "setting": "[2]; 50 μM in delay, 482 explants", "value": 47.9, "unit": "%"}, {"measurement": "Efficiency (%)", "setting": "[2]; 100 μM in delay, 464 explants", "value": 2.2, "unit": "%"}, {"measurement": "Responding calli (%)", "setting": "[2]; 100 μM in delay, 464 explants", "value": 28.4, "unit": "%"}, {"measurement": "% efficiency", "setting": "[2]; [3]", "value": 3.0, "unit": "%"}, {"measurement": "% responding calli", "setting": "[2]; [3]", "value": 41.7, "unit": "%"}, {"measurement": "% efficiency", "setting": "[2]; [4]", "value": 5.4, "unit": "%"}, {"measurement": "% responding calli", "setting": "[2]; [4]", "value": 50.5, "unit": "%"}, {"measurement": "% efficiency", "setting": "[2]; [5]", "value": 4.9, "unit": "%"}, {"measurement": "% responding calli", "setting": "[2]; [5]", "value": 49.6, "unit": "%"}]}
